Data on 48 compounds can be found in ChEMBL document CHEMBL1121791, “Computer-assisted structure-activity studies of chemical carcinogens. Aromatic amines” (J Med Chem, 1981).

The structures appear in SMILES notation.

What all share (assay type): functional, organism-based
In experiment [1] the test system is Rattus norvegicus. Put plainly: Carcinogenic activity on all sites after oral administration.
Experiment [2] relates to Rattus norvegicus. Briefly: Carcinogenic activity on liver after oral administration.
The subject of experiment [3] is Rattus norvegicus. Put plainly: Carcinogenic activity on other sites after oral administration.
Experiment [4] deals with Rattus norvegicus. Put plainly: Carcinogenic activity on breast after oral administration of the compound.
The test system of experiment [5] is Rattus norvegicus. Briefly: Carcinogenic activity on ear duct after oral administration.
For experiment [6], the system named is Rattus norvegicus. Put plainly: Carcinogenic activity on mixed data after oral administration.

Take `COc1ccc(/N=N/c2ccc(N)c(OC)c2)cc1`: the Activity entry in the experiment on Rattus norvegicus [1], with Rattus norvegicus [2] and in the experiment on Rattus norvegicus [3] was “Carcinogenic activity” in each case.

As to `CC(=O)Nc1ccc(/C=C/c2ccccc2)cc1`, the Activity entry in the experiment on Rattus norvegicus [4], in the experiment with Rattus norvegicus [1] and in the experiment on Rattus norvegicus [5] was “Carcinogenic activity” throughout.

For the compound `Nc1cc2ccccc2cc1[N+](=O)[O-]`, the Activity entry with Rattus norvegicus [1] and in the experiment on Rattus norvegicus [3] was “Carcinogenic activity” in each case.

For `CN(C)c1ccc(/C=C/c2ccc(F)cc2)cc1`, the Activity result in the experiment with Rattus norvegicus [1] and with Rattus norvegicus [5] was “Carcinogenic activity” in each case.

For the compound `ONc1ccc(/C=C/c2ccccc2)cc1`, the Activity entry in the experiment on Rattus norvegicus [1] and with Rattus norvegicus [3] was “Carcinogenic activity” in each case.

With `NCC(=O)Nc1ccc2c(c1)-c1ccccc1C2`, the Activity entry with Rattus norvegicus [1] and with Rattus norvegicus [2] was “Carcinogenic activity” in each case.

`Nc1ccc(Cc2ccc(N)c(Cl)c2)cc1Cl`: the Activity result in the experiment with Rattus norvegicus [1], with Rattus norvegicus [2] and in the experiment on Rattus norvegicus [3] was “Carcinogenic activity” in each case.

Consider `CC(=O)Nc1ccc2c(c1)Sc1ccccc1C2`, for which the Activity entry in the experiment with Rattus norvegicus [4], in the experiment with Rattus norvegicus [1], in the experiment on Rattus norvegicus [6], with Rattus norvegicus [3] and with Rattus norvegicus [5] was “Carcinogenic activity” throughout.

For the compound `CN(C)c1ccc(/C=C/c2ccc(Cl)cc2)cc1`, the Activity entry in the experiment with Rattus norvegicus [1] and in the experiment on Rattus norvegicus [5] was “Carcinogenic activity” each time.

With `Nc1ccc2c(c1)CCc1ccccc1-2`, the Activity result with Rattus norvegicus [1], with Rattus norvegicus [6], in the experiment on Rattus norvegicus [3] and in the experiment with Rattus norvegicus [5] was “Carcinogenic activity” throughout.

Regarding `Nc1nc(N)nc(-c2ccc([N+](=O)[O-])o2)n1`, the Activity result in the experiment on Rattus norvegicus [4] and in the experiment with Rattus norvegicus [1] was “Carcinogenic activity” in each case.

As for `Nc1ccc2c(c1)Cc1cc(N)ccc1-2`, the Activity entry in the experiment on Rattus norvegicus [4] and in the experiment with Rattus norvegicus [1] was “Carcinogenic activity” throughout.

With `COc1ccc2c(c1)Cc1cc(NC(C)=O)ccc1-2`, the Activity result with Rattus norvegicus [4], with Rattus norvegicus [1], in the experiment with Rattus norvegicus [6], with Rattus norvegicus [2] and in the experiment with Rattus norvegicus [5] was “Carcinogenic activity” in each case.

`CCN(CC)c1ccc2c(c1)Cc1ccccc1-2`: the Activity entry in the experiment with Rattus norvegicus [1] and in the experiment on Rattus norvegicus [3] was “Carcinogenic activity” throughout.

In the case of `CN(C)c1ccc2cc3ccc(N(C)C)cc3nc2c1`, the Activity result in the experiment on Rattus norvegicus [1] and with Rattus norvegicus [2] was “Carcinogenic activity” each time.

With `Nc1ccc2ccc3ccccc3c2c1`, the Activity result with Rattus norvegicus [4] and with Rattus norvegicus [1] was “Carcinogenic activity” each time.

In the case of `CN(C)c1ccc(/C=C/c2ccccc2)cc1`, the Activity result in the experiment on Rattus norvegicus [1] and in the experiment with Rattus norvegicus [5] was “Carcinogenic activity” in each case.

With `CC(=O)Nc1ccc2c(c1)Cc1cc(F)ccc1-2`, the Activity entry in the experiment with Rattus norvegicus [4], in the experiment on Rattus norvegicus [1], with Rattus norvegicus [6], with Rattus norvegicus [2] and in the experiment with Rattus norvegicus [5] was “Carcinogenic activity” in each case.

`Nc1ccc(-c2ccc(N)c(Cl)c2)cc1Cl`: the Activity result with Rattus norvegicus [4], with Rattus norvegicus [1], with Rattus norvegicus [6], in the experiment with Rattus norvegicus [3] and in the experiment on Rattus norvegicus [5] was “Carcinogenic activity” each time.

Turning to `CC(=O)Nc1ccc2c(c1)Cc1c(F)cccc1-2`, the Activity result in the experiment on Rattus norvegicus [4], in the experiment with Rattus norvegicus [1], in the experiment with Rattus norvegicus [6], in the experiment with Rattus norvegicus [2] and in the experiment on Rattus norvegicus [5] was “Carcinogenic activity” in each case.

As to `Nc1cc2ccccc2c2ccccc12`, the Activity entry in the experiment with Rattus norvegicus [4] and in the experiment with Rattus norvegicus [1] was “Carcinogenic activity” in each case.

Consider `CC(=O)Nc1nc(-c2ccc([N+](=O)[O-])o2)no1`, for which the Activity entry in the experiment on Rattus norvegicus [1], with Rattus norvegicus [2] and in the experiment with Rattus norvegicus [3] was “Carcinogenic activity” each time.

Take `CC(=O)N(O)c1ccc(/C=C/c2ccccc2)cc1`: the Activity result with Rattus norvegicus [4], in the experiment on Rattus norvegicus [1], in the experiment on Rattus norvegicus [6], in the experiment on Rattus norvegicus [3] and in the experiment with Rattus norvegicus [5] was “Carcinogenic activity” each time.

Regarding `O=CNc1ccc2c(c1)Cc1ccccc1-2`, the Activity result in the experiment with Rattus norvegicus [4], in the experiment on Rattus norvegicus [1] and with Rattus norvegicus [5] was “Carcinogenic activity” in each case.

Regarding `CC(=O)Nc1ccc2c(c1)oc1ccccc12`, the Activity result with Rattus norvegicus [4], in the experiment on Rattus norvegicus [1] and with Rattus norvegicus [5] was “Carcinogenic activity” each time.

Regarding `CC(=O)Nc1ccc2c(c1)Cc1cccc(F)c1-2`, the Activity result with Rattus norvegicus [4], in the experiment on Rattus norvegicus [1] and in the experiment on Rattus norvegicus [5] was “Carcinogenic activity” each time.

Take `Nc1ccc(/C=C/c2ccc3ccccc3n2)cc1`: the Activity entry with Rattus norvegicus [1] and in the experiment on Rattus norvegicus [5] was “Carcinogenic activity” each time.

With `CN(C)Nc1nc(-c2ccc([N+](=O)[O-])o2)cs1`, the Activity result in the experiment on Rattus norvegicus [1] and with Rattus norvegicus [3] was “Carcinogenic activity” throughout.

Take `O=C(O)CCC(=O)Nc1ccc2c(c1)Cc1ccccc1-2`: the Activity result with Rattus norvegicus [1] and with Rattus norvegicus [2] was “Carcinogenic activity” throughout.

In the case of `Cc1cccc(/C=C/c2ccc(N(C)C)cc2)c1`, the Activity entry with Rattus norvegicus [1] and in the experiment on Rattus norvegicus [5] was “Carcinogenic activity” each time.

With `Nc1ccc(-c2cccc(F)c2)cc1`, the Activity entry in the experiment with Rattus norvegicus [4] and with Rattus norvegicus [1] was “Carcinogenic activity” each time.

Turning to `Cn1cnc([N+](=O)[O-])c1Sc1ncnc2[nH]cnc12`, the Activity entry in the experiment on Rattus norvegicus [1], in the experiment with Rattus norvegicus [3] and with Rattus norvegicus [5] was “Carcinogenic activity” in each case.

As for `O=C(Nc1ccc2c(c1)Cc1ccccc1-2)C(F)(F)F`, the Activity result with Rattus norvegicus [4], with Rattus norvegicus [1], in the experiment with Rattus norvegicus [6], with Rattus norvegicus [2] and in the experiment on Rattus norvegicus [5] was “Carcinogenic activity” throughout.

Regarding `CC(=O)N(O)c1ccc(-c2ccccc2)cc1`, the Activity entry in the experiment on Rattus norvegicus [4], in the experiment with Rattus norvegicus [1], in the experiment with Rattus norvegicus [6], with Rattus norvegicus [3] and in the experiment with Rattus norvegicus [5] was “Carcinogenic activity” in each case.

As for `Nc1ccc(/N=N/c2ccccc2)cc1`, the Activity entry in the experiment on Rattus norvegicus [1] and with Rattus norvegicus [3] was “Carcinogenic activity” each time.

On to `CC(=O)Nc1ccc2c(c1)Cc1ccccc1S2`, for which the Activity result in the experiment on Rattus norvegicus [4], in the experiment on Rattus norvegicus [1], with Rattus norvegicus [6], in the experiment with Rattus norvegicus [3] and in the experiment with Rattus norvegicus [5] was “Carcinogenic activity” each time.

For `COc1cc(/N=N/c2ccccc2)ccc1N`, the Activity result in the experiment with Rattus norvegicus [1], in the experiment with Rattus norvegicus [6], with Rattus norvegicus [2], in the experiment on Rattus norvegicus [3] and in the experiment with Rattus norvegicus [5] was “Carcinogenic activity” in each case.

In the case of `O=CNc1nc(-c2ccc([N+](=O)[O-])o2)cs1`, the Activity result in the experiment on Rattus norvegicus [4], in the experiment with Rattus norvegicus [1] and in the experiment with Rattus norvegicus [3] was “Carcinogenic activity” each time.

With `CC(=O)Nc1ccc2c(c1)Cc1cccc(NC(C)=O)c1-2`, the Activity entry in the experiment with Rattus norvegicus [4] and in the experiment on Rattus norvegicus [1] was “Carcinogenic activity” each time.

For `CC(=O)Nc1ccc2c(c1F)Cc1ccccc1-2`, the Activity entry in the experiment with Rattus norvegicus [4], in the experiment with Rattus norvegicus [1] and in the experiment on Rattus norvegicus [5] was “Carcinogenic activity” throughout.

For `Nc1ccc(-c2ccccc2)cc1F`, the Activity entry with Rattus norvegicus [4] and in the experiment with Rattus norvegicus [1] was “Carcinogenic activity” in each case.

Consider `Cc1cc2ccccc2cc1N`, for which the Activity result in the experiment on Rattus norvegicus [4], in the experiment with Rattus norvegicus [1] and in the experiment on Rattus norvegicus [3] was “Carcinogenic activity” each time.

For the compound `CC(=O)Nc1cc(F)c2c(c1)Cc1ccccc1-2`, the Activity entry in the experiment with Rattus norvegicus [4], in the experiment with Rattus norvegicus [1] and in the experiment with Rattus norvegicus [5] was “Carcinogenic activity” throughout.

Take `Cc1cc(-c2ccccc2)ccc1N`: the Activity result with Rattus norvegicus [1], with Rattus norvegicus [3] and in the experiment with Rattus norvegicus [5] was “Carcinogenic activity” each time.

Regarding `CC(=O)Nc1cc2c(cc1I)-c1ccccc1C2`, the Activity entry with Rattus norvegicus [1] and in the experiment with Rattus norvegicus [5] was “Carcinogenic activity” throughout.

In the case of `Cc1cccc(/N=N/c2cc(C)ccc2N)c1`, the Activity result in the experiment with Rattus norvegicus [1] and with Rattus norvegicus [2] was “Carcinogenic activity” throughout.

Take `ONc1cccc2ccccc12`: the Activity entry with Rattus norvegicus [1] and in the experiment with Rattus norvegicus [3] was “Carcinogenic activity” each time.

In the case of `Nc1nc[nH]n1`, the Activity result with Rattus norvegicus [1], with Rattus norvegicus [2] and in the experiment with Rattus norvegicus [3] was “Carcinogenic activity” throughout.
